Experimental data: ChEMBL document CHEMBL1153930, “(-)-Dibromophakellin: an alpha2B adrenoceptor agonist isolated from the Australian marine sponge, Acanthella costata” (Bioorg Med Chem, 2009)
Active and inactive are the calls of the source. No cut-off for these calls is given here.

What was measured:
[1] = target: T1, Alpha-2B adrenergic receptor (Homo sapiens) (UniProt P18089); test: Agonist activity at human adrenergic alpha2B receptor expressed in HEK293 cells coexpressing Gqi5 protein up to 83 uM by FLIPR assay; type: functional, cell-based
T1 sequence (whole entry): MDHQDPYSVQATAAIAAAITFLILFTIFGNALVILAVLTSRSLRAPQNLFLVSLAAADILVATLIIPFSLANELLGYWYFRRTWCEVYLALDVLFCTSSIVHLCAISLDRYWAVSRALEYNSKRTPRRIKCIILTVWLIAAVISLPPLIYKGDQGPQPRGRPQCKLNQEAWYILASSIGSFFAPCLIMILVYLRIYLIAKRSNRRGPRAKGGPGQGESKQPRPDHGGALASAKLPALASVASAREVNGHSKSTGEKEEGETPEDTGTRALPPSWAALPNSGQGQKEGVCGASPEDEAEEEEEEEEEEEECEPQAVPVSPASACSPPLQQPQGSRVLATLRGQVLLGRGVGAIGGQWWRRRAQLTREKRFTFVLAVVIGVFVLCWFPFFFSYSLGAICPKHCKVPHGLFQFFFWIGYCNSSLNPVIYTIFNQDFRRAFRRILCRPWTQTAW

[2] = target: T2, Alpha-2B adrenergic receptor (Homo sapiens, UniProt P18089); test: Agonist activity at human adrenergic alpha2B receptor expressed in HEK293 cells coexpressing Gqi5 protein by FLIPR assay; type: functional, cell-based
T2 sequence (P18089 whole entry): T1 sequence (whole entry)

SMILES	Activity [1]	EC50 [2] [µM]
NC1=N[C@]23CCCN2C(=O)c2cc(-c4ccccc4)c(-c4ccccc4)n2[C@@H]3N1	inactive	
NC1=N[C@H]2n3c(cc(Br)c3Br)C(=O)N3CCC[C@]23N1 [DIBROMOPHAKELLIN]		4.2
NC1=N[C@]23CCCN2C(=O)c2cc(Br)c(-c4ccccc4)n2[C@@H]3N1	inactive	

Continued, values first:

Activity [1]	EC50 [2] [µM]	SMILES
inactive		NC1=N[C@]23CCCN2C(=O)c2cccn2[C@@H]3N1
inactive		NC1=N[C@]23CCCN2C(=O)c2cc(Br)cn2[C@@H]3N1
